# Assays:
# [1] = Aqueous solubility of the compound in PBS buffer at pH 7.4 incubated for 72 hrs by HPLC analysis; type: physicochemical
# [2] = Metabolic stability in human liver microsomes assessed as metabolic turnover at 1 uM measured after 30 mins in presence of NADPH by LC/MS analysis; type: ADME, Microsome; conditions: read-out: Drug metabolism
# [3] = Metabolic stability in rat liver microsomes assessed as metabolic turnover at 1 uM measured after 30 mins in presence of NADPH by LC/MS analysis; type: ADME, Microsome; conditions: read-out: Drug metabolism
# [4] = Clearance in male Sprague-Dawley rat at 0.5 mg/kg, iv; type: ADME, organism-based; conditions: in vivo
# [5] = Unbound clearance in male Sprague-Dawley rat at 0.5 mg/kg, iv; type: ADME, organism-based; conditions: in vivo
# [6] = Oral bioavailability in male Sprague-Dawley rat at 2 mg/kg; type: ADME, organism-based; conditions: in vivo
# [7] = Clearance in male Sprague-Dawley rat at 0.72 mg/kg, iv; type: ADME, organism-based; conditions: in vivo
# [8] = Clearance in male Sprague-Dawley rat at […], iv; type: ADME, organism-based; conditions: in vivo, dose 0.71 mg/kg
# [9] = Clearance in male Sprague-Dawley rat at 0.8 mg/kg, iv; type: ADME, organism-based; conditions: in vivo
solubility at 72 h [1],"metabolised at 0.5 h, 1 µM [2]","metabolised at 0.5 h, 1 µM [3]",clearance [4],CL free [5],bioavailability [6],clearance [7],clearance [8],clearance [9],SMILES
500 µM,< 10%,< 10%,16.5 mL/min/kg,51.7 mL/min/kg,41%,,,,C[C@H](Nc1ncnc(N)c1C#N)c1nc2ccc(F)cc2n1-c1cncc(F)c1
401 µM,15%,28%,,460 mL/min/kg,,46 mL/min/kg,,,C[C@H](Nc1ncnc(N)c1C#N)c1nc2ccc(F)cc2n1-c1cccc(F)c1
305 µM,11%,30%,44 mL/min/kg,338 mL/min/kg,,,,,C[C@H](Nc1ncnc(N)c1C#N)c1nc2ccc(F)cc2n1-c1cc(F)cc(F)c1

# More lines, now with the values behind:
SMILES,solubility at 72 h [1],"metabolised at 0.5 h, 1 µM [2]","metabolised at 0.5 h, 1 µM [3]",clearance [4],CL free [5],bioavailability [6],clearance [7],clearance [8],clearance [9]
C[C@H](Nc1ncnc(N)c1C#N)c1nc2ccc(F)cc2n1-c1ccccc1,374 µM,< 10%,26%,40.2 mL/min/kg,447 mL/min/kg,,,,
C[C@H](Nc1ncnc(N)c1C#N)c1nc2ccc(F)cc2n1-c1cccnc1,474 µM,< 10%,< 10%,,43.3 mL/min/kg,45%,,15.5 mL/min/kg,
C[C@H](Nc1ncnc(N)c1C#N)c1nc2ccc(F)cc2n1-c1ccc(F)cc1,353 µM,< 10%,22%,29.7 mL/min/kg,300 mL/min/kg,,,,
C[C@H](Nc1ncnc(N)c1C#N)c1nc2ccc(F)cc2n1-c1ccccn1,500 µM,< 10%,< 10%,16.2 mL/min/kg,73.3 mL/min/kg,58%,,,
C[C@H](Nc1ncnc(N)c1C#N)c1nc2ccc(F)cc2n1-c1cccc(S(C)(=O)=O)c1,500 µM,< 10%,< 10%,,205 mL/min/kg,,,,71.7 mL/min/kg
